System: CYP3A4
Assay: CYP3A4 mRNA expression by RT-qPCR in spheroid-shaped FLC-4 cells (example, MICRO-SPACE)
Format: cell-based, human
Description: A plurality of culture chambers 10a are formed on the bottom culture surface of each well 21a. Each culture chamber 10a includes culture rooms 11a each having the equivalent diameter D of 200 μm and the height H of 100 μm. The width W of each wall 12a is 10 μm.
As cells to be cultured, FLC-4 cells which are established hepatocyte cell lines […] were used.
As a culture medium, a DMEM/F 12 culture medium containing 10% fetal bovine serum (FBS) was used. A cell suspension was adjusted at a cell seeding density of 16×10^5 cells/mL.
The cells were cultured in a CO2 incubator for 10 to 11 days. The culture medium was replaced once every three days.
The total amount of old culture medium was removed from each well by using a pipette (culture medium removing process).
A test solution or a control solution was added to each well (test solution addition process).
The cells were incubated in a CO2 incubator for eight hours, 24 hours, or 48 hours at 37° C. (contact process).
The test solution was obtained in such a manner that the cytokine was dissolved at each concentration shown in Table 1 in a DMEM/F12 solution (DMEM/E12 FBS(−)) containing no serum.
In an RNA extraction, one sample corresponding to two wells 21a of the culture plate 1a was extracted according to the protocol of NucleoSpin® RNAII (Macherey-Nagel). Only the portion to be subjected to Dnase treatment was modified, and DNaseI recombinant, RNase-free (Roche, Branchburg, N.J., USA) was used. The total RNA underwent reverse transcription reaction using High-Capacity cDNA Reverse Transcription Kits (Applied. Biosystems, Foster City, Calif., USA) and an attached random hexamer primer, and the first strand cDNA was synthesized.
The analysis was made using a total amount of 20 μL of reaction liquid containing 9.6 μL of EagleTaq Master Mix with ROX (Roche, Branchburg, N.J., USA), 0.96 μL of 20× Assays-on-Demand™ Gene Expression Assay Mix (Applied Biosystems), 7.1 μL of sterilized MiliQ water, and 1.8 μL of cDNA diluted by a factor of 5, and the reaction liquid was measured by Real-time PCR.

Row | value of the metabolic function of CYP3A4 (mRNA expression level), third test solution versus second test solution (10 ng/mL EGF + 5 μM Gefitinib vs 10 ng/mL EGF alone, FIG. 20) | Molecule | determination of the drug's effect on the drug-metabolizing function of the cytochrome P450 (10 ng/mL EGF + 5 μM Gefitinib, first to third test solutions compared) | gene expression level of CYP3A4 versus contact time (spheroid-shaped established hepatocyte cell line, contact for 0, four and eight hours, FIG. 9)
1 | three times higher | COc1cc2ncnc(Nc3ccc(F)c(Cl)c3)c2cc1OCCCN1CCOCC1 [Gefitinib, reference compound] | restores the drug-metabolizing function of the cytochrome P450 | 
2 |  | interleukin-1β |  | decreases over time

Source: patent US10677783B2, “Method for evaluating effect of cytokine on metabolic activity of cytochrome P450, and drug screening method” (Corning Incorporated, priority 2012, dated 2020)
